Source: patent US9796742B2, “Kinase inhibitors” (Respivert Limited, priority 2012, dated 2017)
Like-named read-outs stand apart in the source and are kept apart here.

How the values were obtained:
[1] = test system: PBMCs; test: IL-2 and IFN gamma release in CD3/CD28 stimulated PBMC cells; assay type: cell-based; conditions: Homo sapiens
Method: PBMCs from healthy subjects are separated from whole blood using a density gradient (Lymphoprep, Axis-Shield Healthcare). Cells are added to a 96 well plate pre-coated with a mixture of CD3/[…] monoclonal antibodies (0.3 μg/mL eBioscience and 3 μg/mL BD Pharmingen respectively). Compound at the desired concentration is then added to the wells and the plate left for 3 days under normal tissue culture conditions. Supernatants are harvested and IL-2 and IFN gamma release determined by Sandwich ELISA (Duo-set, R&D System). The IC50 is determined from the dose response curve.

[2] = molecular target: Syk (Homo sapiens (Human), UniProt P43405); test: Syk enzyme inhibition (FRET, Z-LYTE); assay type: biochemical
In short: (§1)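 Z-LYTE FRET peptide assay with enzyme preincubated with compound for 2 h at RT, then 1 h kinase reaction and 1 h protease development. ATP solutions were 800 μM for c-Src and 60 μM for Syk. Inhibition was taken from the coumarin/fluorescein emission ratio, and IC50 from concentration-response curves.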

[3] = test system: d-U937 cells; test: LPS-induced TNFα/IL-8 release in d-U937 cells; assay type: cell-based; conditions: Homo sapiens, dU937, LPS-stimulated d-U937 cells
Method: U937 cells, a human monocytic cell line, are differentiated to macrophage-type cells by incubation with phorbol myristate acetate (PMA; 100 ng/mL) for 48 to 72 hr. Cells are pre-incubated with final concentrations of test compound for 2 hr and are then stimulated with 0.1 μg/mL of LPS (from E. Coli: O111:B4, Sigma) for 4 hr. The supernatant is collected for determination of TNFα and IL-8 concentrations by sandwich ELISA (Duo-set, R&D systems). The inhibition of TNFα production is calculated as a percentage of that achieved by 10 μg/mL of BIRB796 at each concentration of test compound by comparison against vehicle control. The relative 50% effective concentration (REC50) is determined from the resultant concentration-response curve. The inhibition of IL-8 production is calculated at each concentration of test compound by comparison with vehicle control. The 50% inhibitory concentration (IC50) is determined from the resultant concentration-response curve.

[4] = molecular target: p38 MAPKα (Homo sapiens (Human), UniProt Q16539); test: p38 MAPKα enzyme inhibition (FRET, Z-LYTE; Method 2); assay type: biochemical
Sequence of p38 MAPKα (Q16539 whole entry): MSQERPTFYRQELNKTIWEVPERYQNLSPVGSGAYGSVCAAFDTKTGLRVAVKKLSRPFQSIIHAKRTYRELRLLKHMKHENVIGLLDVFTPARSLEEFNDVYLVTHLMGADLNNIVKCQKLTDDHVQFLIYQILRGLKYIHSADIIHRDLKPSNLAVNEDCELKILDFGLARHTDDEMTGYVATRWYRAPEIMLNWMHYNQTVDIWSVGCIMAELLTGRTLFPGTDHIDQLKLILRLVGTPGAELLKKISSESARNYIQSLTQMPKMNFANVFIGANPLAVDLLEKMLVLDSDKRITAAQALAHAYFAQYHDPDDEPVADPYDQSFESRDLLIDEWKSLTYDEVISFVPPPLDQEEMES
In short: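 p38 MAPKα (2.5 μL of 200 ng/mL stock) preincubated 2 h at RT with compound, then kinase reaction 1 h at RT with readout via MAPKAP-K2 activation using a Z-LYTE FRET peptide. Protease development 1 h; coumarin/fluorescein emission ratio gives phosphorylation. % inhibition versus uninhibited control; IC50 from concentration-response curve.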

[5] = test system: PBMCs; test: LPS-induced TNFα/IL-8 release in PBMC cells; assay type: cell-based; conditions: Homo sapiens, LPS-stimulated PBMCs, IL-8, read-out: IC50 Values for Inhibition of Cytokine Release, PBMCs IL-8
In short: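 Human PBMCs from healthy donors, isolated by density gradient, were pretreated with compound for 2 h and then stimulated with 1 ng/mL LPS (E. coli 0111:B4) for 24 h at 37° C, 5% CO2. Supernatant IL-8 and TNFα were measured by sandwich ELISA, and IC50 was taken from the dose-response curve.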

[6] = molecular target: c-Src (Homo sapiens (Human), UniProt P12931); test: c-Src enzyme inhibition (FRET, Z-LYTE); assay type: biochemical
Sequence of c-Src (P12931 whole entry, looked up): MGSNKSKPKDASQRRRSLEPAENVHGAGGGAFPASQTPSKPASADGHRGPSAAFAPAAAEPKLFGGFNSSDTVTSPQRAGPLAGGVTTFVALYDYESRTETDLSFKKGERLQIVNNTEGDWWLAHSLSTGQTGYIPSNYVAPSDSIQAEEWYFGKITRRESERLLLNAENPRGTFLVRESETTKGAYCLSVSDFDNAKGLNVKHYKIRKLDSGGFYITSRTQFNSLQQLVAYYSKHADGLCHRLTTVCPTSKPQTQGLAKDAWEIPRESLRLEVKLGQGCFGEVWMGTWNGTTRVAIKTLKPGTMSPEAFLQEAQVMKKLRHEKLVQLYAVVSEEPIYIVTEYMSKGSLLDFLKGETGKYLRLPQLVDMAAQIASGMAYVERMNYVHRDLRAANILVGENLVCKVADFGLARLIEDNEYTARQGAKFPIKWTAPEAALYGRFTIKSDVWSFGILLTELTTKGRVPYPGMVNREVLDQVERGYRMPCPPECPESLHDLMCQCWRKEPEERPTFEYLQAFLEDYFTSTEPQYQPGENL
In short: as §1

[7] = molecular target: GSK3α (Homo sapiens (Human), UniProt P49840); test: GSK 3α enzyme inhibition (FRET, Z-LYTE; Method 2); assay type: biochemical
Sequence of GSK3α (P49840 whole entry): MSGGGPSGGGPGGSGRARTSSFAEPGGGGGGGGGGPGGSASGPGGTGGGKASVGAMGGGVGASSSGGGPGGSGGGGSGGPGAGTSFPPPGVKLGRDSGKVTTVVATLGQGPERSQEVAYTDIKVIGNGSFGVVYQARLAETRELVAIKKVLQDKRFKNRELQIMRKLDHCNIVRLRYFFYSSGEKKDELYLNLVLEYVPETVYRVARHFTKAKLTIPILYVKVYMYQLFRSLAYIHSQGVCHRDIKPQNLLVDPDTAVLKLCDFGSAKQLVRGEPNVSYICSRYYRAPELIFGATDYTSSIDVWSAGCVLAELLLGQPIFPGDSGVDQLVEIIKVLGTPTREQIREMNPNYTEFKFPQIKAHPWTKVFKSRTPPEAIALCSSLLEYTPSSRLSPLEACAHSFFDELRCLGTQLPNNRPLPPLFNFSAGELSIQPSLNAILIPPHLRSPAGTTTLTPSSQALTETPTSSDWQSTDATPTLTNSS
In short: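 GSK3-α protein preincubated with compound for 105 min, then Z-LYTE FRET peptide and ATP added for 1 h before protease development for 1 h. Phosphorylation taken from coumarin/fluorescein emission ratio; percent inhibition against uninhibited control and IC50 calculated from concentration-response curves.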

[8] = test system: HT29 cells; test: IL-1β-induced IL-8 release in HT29 cells; assay type: cell-based; conditions: Homo sapiens, HT-29, IL-1β-stimulated HT29 cells, read-out: IC50 Values for Inhibition of Cytokine Release, HT29 cells IL-8
Method: HT29 cells, a human colon adenocarcinorna cell line, are plated in a 96 well plate (24 hrs) and pre-treated with compounds at the desired concentration for 2 hours before addition of 5 ng/mL of IL-1β (Abcam) for 24 hours. Supernatants are harvested for IL-8 quantification by Sandwich ELISA (Duo-set, R&D System). The IC50 is determined from the dose response curve.

[9] = test system: TNBS-induced colitis in mice; test: TNBS-induced colitis in mice; assay type: in vivo
Method: Non-fasted, 10-12 week old, male BDF1 mice are dosed by oral gavage twice daily with either vehicle (5 mL/kg), reference item (Budesonide 2.5 mg/kg) or test compound (1 or 5 mg/kg) one day before (Day −1) stimulation of the inflammatory response by treatment with 2,4,6-trinitrobenzenesuiphonic acid (TNBS) (15 mg/mL in 50% ethanol/50% saline). On Day 0 of the study TNBS (200 μL) is administered intra-colonically via a plastic catheter followed by BID dosing of the vehicle, reference or test compound for 2 or 4 days. During the study animals are weighed every day and stool observations are made and recorded as a score, based on stool consistency. At the time of sacrifice on Day 2 (or Day 4) the large intestine is removed and the length and weight recorded. Sections of the colon are taken for either MPO analysis to determine neutrophil infiltration or for histopathology involving scoring to determine disease severity.

[10] = IL-2, read-out: IC50 Values for Inhibition of Cytokine Release, PBMCs IL-2
[11] = IL-8, read-out: IC50 Values for Inhibition of Cytokine Release, dU937 cells IL-8
[12] = TNFα (REC50 relative to BIRB796 per method), read-out: IC50 Values for Inhibition of Cytokine Release, dU937 cells TNFα
[13] = IFNγ, read-out: IC50 Values for Inhibition of Cytokine Release, PBMCs IFNγ

CC(C)(C)c1cc(NC(=O)Nc2ccc(Oc3ccnc(Nc4ccccc4)n3)c3ccccc23)n(-c2cccc(CP(C)(C)=O)c2)n1 [Example 23, 1-(3-(tert-Butyl)-1-(3-((dimethylphosphoryl)methyl)phenyl)-1H-pyrazol-5-yl)-3-(4-((2-(phenylamino)pyrimidin-4-yl)oxy)naphthalen-1-yl)urea]
IC50 [1, 10]: 42.7 nM | IC50 [2]: 97 nM | IC50 [3, 11]: 2.2 nM | IC50 [3, 12]: 1.4 nM | IC50 [4]: 265 nM | IC50 [5]: 7.5 nM | IC50 [6]: 40 nM | IC50 [7]: 1640 nM | IC50 [8]: 13.5 nM

Cc1cc(Nc2nccc(Oc3ccc(NC(=O)Nc4cc(C(C)(C)C)nn4-c4cccc(CP(C)(C)=O)c4)c4ccccc34)n2)cc2cn[nH]c12 [Example 32, 1-(3-(tert-Butyl)-1-(3-((dimethylphosphoryl)methyl)phenyl)-1H-pyrazol-5-yl)-3-(4-((2-((7-methyl-1H-indazol-5-yl)amino)pyrimidin-4-yl)oxy)naphthalen-1-yl)urea]
IC50 [1, 13]: 2.3 nM | IC50 [1, 10]: 4.2 nM | TNBS Ulcer grade ([9]; 5 mg/kg oral, conducted over 2 days, vehicle 3.6 ± 0.3 (exp. 1), 4.4 ± 0.2 (exp. 2)): 3.3 ± 0.4 | TNBS LP inflammation ([9]; 5 mg/kg oral, conducted over 2 days, vehicle 3.9 ± 0.3 (exp. 1), 4.5 ± 0.2 (exp. 2)): 2.7 ± 0.4 | activity in in vivo model of colonic inflammation (histopathology analysis) ([9]; conducted over 2 days): significant activity | inflammatory cell infiltrate in the reticular and laminar propria zone ([9]; dosed orally at 5 mg/kg): marked reduction | ulcer grade and epithelial repair compared to the vehicle control ([9]; dosed orally at 5 mg/kg): marked improvements | IC50 [2]: 5 nM | IC50 [4]: 60 nM | IC50 [5]: 1.3 nM | IC50 [6]: 5 nM | IC50 [7]: 1320 nM | IC50 [8]: 1.9 nM

COc1cc(Nc2nccc(Oc3ccc(NC(=O)Nc4cc(C(C)C)nn4-c4cccc(CP(C)(C)=O)c4)c4ccccc34)n2)cc(C(=O)NCCN2CCOCC2)c1 [Example 38, 3-((4-((4-(3-(1-(3-((Dimethylphosphoryl)methyl)phenyl)-3-isopropyl-1H-pyrazol-5-yl)-ureido)naphthalen-1-yl)oxy)pyrimidin-2-yl)amino)-5-methoxy-N-(2-morpholinoethyl)-benzamide]
IC50 [1, 10]: 9.2 nM | IC50 [2]: 3 nM | IC50 [3, 11]: 2.9 nM | IC50 [3, 12]: 1.6 nM | IC50 [4]: 10 nM | IC50 [5]: 3.8 nM | IC50 [6]: 2 nM | IC50 [7]: 1250 nM | IC50 [8]: 27 nM

COc1cc(Nc2nccc(Oc3ccc(NC(=O)Nc4cc(C(C)C)nn4-c4cccc(CP(C)(C)=O)c4)c4ccccc34)n2)cc(OCCN2CCOCC2)c1 [Example 39, 1-(1-(3-((Dimethylphosphoryl)methyl)phenyl)-3-isopropyl-1H-pyrazol-5-yl)-3-(4-((2-((3-methoxy-5-(2-morpholinoethoxy)phenyl)amino)pyrimidin-4-yl)oxy)naphthalen-1-yl)urea]
IC50 [2]: 1 nM | IC50 [3, 12]: 0.5 nM | IC50 [4]: 13 nM | IC50 [5]: 1.2 nM | IC50 [6]: 3 nM | IC50 [7]: 2230 nM | IC50 [8]: 4.6 nM

COCCOCCOCCOc1cc(Nc2nccc(Oc3ccc(NC(=O)Nc4cc(C(C)C)nn4-c4cccc(CP(C)(C)=O)c4)c4ccccc34)n2)cc(OC)c1 [Example 45, 1-(1-(3-((Dimethylphosphoryl)methyl)phenyl)-3-isopropyl-1H-pyrazol-5-yl)-3-(4-((2-((3-methoxy-5-(2-(2-(2-methoxyethoxy)ethoxy)ethoxy)phenyl)amino)pyrimidin-4-yl)oxy)naphthalen-1-yl)urea]
IC50 [1, 10]: 19.3 nM | IC50 [3, 12]: 3.9 nM | IC50 [4]: 21 nM | IC50 [5]: 3.3 nM | IC50 [7]: 1130 nM | IC50 [8]: 6.5 nM

CC(C)(C)c1cc(NC(=O)Nc2ccc(Oc3ccnc(Nc4cc(OC(F)(F)F)cc(C(=O)NCCN5CCOCC5)c4)n3)c3ccccc23)n(-c2cccc(CP(C)(C)=O)c2)n1 [Example 59, 3-((4-((4-(3-(3-(tert-Butyl)-1-(3-((dimethylphosphoryl)methyl)phenyl)-1H-pyrazol-5-yl)-ureido)naphthalen-1-yl)oxy)pyrimidin-2-yl)amino)-N-(2-morpholinoethyl)-5-(trifluoromethoxy)benzamide]
IC50 [1, 13]: 2.5 nM | IC50 [1, 10]: 75.1 nM | IC50 [2]: 18 nM | IC50 [3, 11]: 0.9 nM | IC50 [4]: 81 nM | IC50 [5]: 0.8 nM | IC50 [6]: 7 nM | IC50 [7]: 1240 nM | IC50 [8]: 1.9 nM
